Measurements published in ChEMBL document CHEMBL5360672, “Identification of Novel Dual-Target Estrogen Receptor α Degraders with Tubulin Inhibitory Activity for the Treatment of Endocrine-Resistant Breast Cancer” (J Med Chem, 2023).
The source made the active and inactive calls. The rule behind the calls is not given here.

Biological target: T1, Estrogen receptor (Homo sapiens) (UniProt P03372)
T1 sequence (whole entry): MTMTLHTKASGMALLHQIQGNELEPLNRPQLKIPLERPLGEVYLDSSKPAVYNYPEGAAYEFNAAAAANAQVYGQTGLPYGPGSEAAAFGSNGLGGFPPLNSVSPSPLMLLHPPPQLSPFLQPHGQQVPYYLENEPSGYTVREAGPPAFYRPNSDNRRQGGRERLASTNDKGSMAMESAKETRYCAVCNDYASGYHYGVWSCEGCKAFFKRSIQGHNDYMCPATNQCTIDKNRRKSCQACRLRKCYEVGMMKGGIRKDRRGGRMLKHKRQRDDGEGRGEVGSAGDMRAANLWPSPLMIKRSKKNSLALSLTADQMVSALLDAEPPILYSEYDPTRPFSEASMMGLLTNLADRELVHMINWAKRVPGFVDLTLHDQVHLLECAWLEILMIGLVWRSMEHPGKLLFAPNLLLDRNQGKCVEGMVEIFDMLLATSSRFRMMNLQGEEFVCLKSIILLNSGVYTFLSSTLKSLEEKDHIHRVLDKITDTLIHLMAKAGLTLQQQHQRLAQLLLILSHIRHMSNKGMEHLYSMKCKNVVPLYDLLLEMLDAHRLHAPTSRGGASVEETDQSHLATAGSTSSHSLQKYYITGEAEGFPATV
Assay: Binding affinity to human ERalpha assessed as relative binding affinity incubated under vibration for 1 min followed by 2 hrs incubation under dark condition by fluorescence polarization assay relative to estradiol
Conditions: time 121.0 min

Structure (SMILES) | RBA [%]
N#C[Se]CCCCCC(=O)Nc1ccc(C2=C(c3ccc(O)cc3)C3CC(S(=O)(=O)N(CC(F)(F)F)c4ccccc4)C2O3)cc1 (stereo not given) | 0.39
COc1ccc(N(CC(F)(F)F)S(=O)(=O)C2CC3OC2C(c2ccc(NC(=O)CCCCC[Se]C#N)cc2)=C3c2ccc(O)cc2)cc1 (stereo not given) | 2.31
CCN(c1cccc(F)c1)S(=O)(=O)C1CC2OC1C(c1ccc(NC(=O)CCCCC[Se]C#N)cc1)=C2c1ccc(O)cc1 (stereo not given) | 0.79
CCN(c1ccc(OC)cc1)S(=O)(=O)C1CC2OC1C(c1ccc(NC(=O)CCC[Se]C#N)cc1)=C2c1ccc(O)cc1 (stereo not given) | 1.07
CCN(c1cccc(Cl)c1)S(=O)(=O)C1CC2OC1C(c1ccc(NC(=O)CCCCC[Se]C#N)cc1)=C2c1ccc(O)cc1 (stereo not given) | 5.56

Biological target: Estrogen receptor beta (Homo sapiens) (UniProt Q92731)
Assay: Binding affinity to human ERbeta assessed as relative binding affinity incubated under vibration for 1 min followed by 2 hrs incubation under dark condition by fluorescence polarization assay relative to estradiol
Conditions: time 121.0 min

Estrogen receptor beta (Homo sapiens), sequence (Q92731 whole entry): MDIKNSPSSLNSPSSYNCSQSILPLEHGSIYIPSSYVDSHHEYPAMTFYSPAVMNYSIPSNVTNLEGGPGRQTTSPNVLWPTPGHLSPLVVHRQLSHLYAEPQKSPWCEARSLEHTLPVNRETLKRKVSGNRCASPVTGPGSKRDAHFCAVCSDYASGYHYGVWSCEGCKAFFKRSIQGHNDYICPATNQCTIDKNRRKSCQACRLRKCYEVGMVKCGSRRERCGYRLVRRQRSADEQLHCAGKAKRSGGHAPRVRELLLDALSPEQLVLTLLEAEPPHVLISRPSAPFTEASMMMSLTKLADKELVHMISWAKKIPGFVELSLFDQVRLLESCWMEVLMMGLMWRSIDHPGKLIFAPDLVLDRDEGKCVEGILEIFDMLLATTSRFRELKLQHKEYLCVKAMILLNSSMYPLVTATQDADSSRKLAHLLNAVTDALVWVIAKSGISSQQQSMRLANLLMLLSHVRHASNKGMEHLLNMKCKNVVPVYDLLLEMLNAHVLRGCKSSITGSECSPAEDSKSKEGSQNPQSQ

Structure (SMILES) | RBA [%]
N#C[Se]CCCCCC(=O)Nc1ccc(C2=C(c3ccc(O)cc3)C3CC(S(=O)(=O)N(CC(F)(F)F)c4ccccc4)C2O3)cc1 (stereo not given) | 0.03
COc1ccc(N(CC(F)(F)F)S(=O)(=O)C2CC3OC2C(c2ccc(NC(=O)CCCCC[Se]C#N)cc2)=C3c2ccc(O)cc2)cc1 (stereo not given) | 0.05
CCN(c1cccc(F)c1)S(=O)(=O)C1CC2OC1C(c1ccc(NC(=O)CCCCC[Se]C#N)cc1)=C2c1ccc(O)cc1 (stereo not given) | 0.03
CCN(c1ccc(OC)cc1)S(=O)(=O)C1CC2OC1C(c1ccc(NC(=O)CCC[Se]C#N)cc1)=C2c1ccc(O)cc1 (stereo not given) | 0.17
CCN(c1cccc(Cl)c1)S(=O)(=O)C1CC2OC1C(c1ccc(NC(=O)CCCCC[Se]C#N)cc1)=C2c1ccc(O)cc1 (stereo not given) | 0.09

Species: Homo sapiens
Assay: Selectivity ratio of relative binding affinity for human ERalpha to relative binding affinity to human ERbeta
Conditions: not given

Structure (SMILES) | Selectivity ratio
N#C[Se]CCCCCC(=O)Nc1ccc(C2=C(c3ccc(O)cc3)C3CC(S(=O)(=O)N(CC(F)(F)F)c4ccccc4)C2O3)cc1 (stereo not given) | 13
COc1ccc(N(CC(F)(F)F)S(=O)(=O)C2CC3OC2C(c2ccc(NC(=O)CCCCC[Se]C#N)cc2)=C3c2ccc(O)cc2)cc1 (stereo not given) | 46.2
CCN(c1cccc(F)c1)S(=O)(=O)C1CC2OC1C(c1ccc(NC(=O)CCCCC[Se]C#N)cc1)=C2c1ccc(O)cc1 (stereo not given) | 26.3
CCN(c1ccc(OC)cc1)S(=O)(=O)C1CC2OC1C(c1ccc(NC(=O)CCC[Se]C#N)cc1)=C2c1ccc(O)cc1 (stereo not given) | 6.29
CCN(c1cccc(Cl)c1)S(=O)(=O)C1CC2OC1C(c1ccc(NC(=O)CCCCC[Se]C#N)cc1)=C2c1ccc(O)cc1 (stereo not given) | 61.8

Test system: MCF7
Assay: Antiproliferative activity against ERalpha positive human MCF7 cells assessed as inhibition of cell proliferation incubated for 72 hrs by CCK8 assay
Assay type: functional, cell-based
Conditions: MCF7, 72 h

Structure (SMILES) | IC50 [µM]
N#C[Se]CCCCCC(=O)Nc1ccc(C2=C(c3ccc(O)cc3)C3CC(S(=O)(=O)N(CC(F)(F)F)c4ccccc4)C2O3)cc1 (stereo not given) | 1.89
COc1ccc(N(CC(F)(F)F)S(=O)(=O)C2CC3OC2C(c2ccc(NC(=O)CCCCC[Se]C#N)cc2)=C3c2ccc(O)cc2)cc1 (stereo not given) | 0.25
CCN(c1cccc(F)c1)S(=O)(=O)C1CC2OC1C(c1ccc(NC(=O)CCCCC[Se]C#N)cc1)=C2c1ccc(O)cc1 (stereo not given) | 0.36
CCN(c1ccc(OC)cc1)S(=O)(=O)C1CC2OC1C(c1ccc(NC(=O)CCC[Se]C#N)cc1)=C2c1ccc(O)cc1 (stereo not given) | 1.63
CCN(c1cccc(Cl)c1)S(=O)(=O)C1CC2OC1C(c1ccc(NC(=O)CCCCC[Se]C#N)cc1)=C2c1ccc(O)cc1 (stereo not given) | 0.28

Test system: T47D
Assay: Antiproliferative activity against ERalpha positive human T47D cells assessed as inhibition of cell proliferation incubated for 72 hrs by CCK8 assay
Assay type: functional, cell-based
Conditions: not given

Structure (SMILES) | IC50 [µM]
N#C[Se]CCCCCC(=O)Nc1ccc(C2=C(c3ccc(O)cc3)C3CC(S(=O)(=O)N(CC(F)(F)F)c4ccccc4)C2O3)cc1 (stereo not given) | 27.7
COc1ccc(N(CC(F)(F)F)S(=O)(=O)C2CC3OC2C(c2ccc(NC(=O)CCCCC[Se]C#N)cc2)=C3c2ccc(O)cc2)cc1 (stereo not given) | 5.3
CCN(c1cccc(F)c1)S(=O)(=O)C1CC2OC1C(c1ccc(NC(=O)CCCCC[Se]C#N)cc1)=C2c1ccc(O)cc1 (stereo not given) | 3.39
CCN(c1ccc(OC)cc1)S(=O)(=O)C1CC2OC1C(c1ccc(NC(=O)CCC[Se]C#N)cc1)=C2c1ccc(O)cc1 (stereo not given) | 7.44
CCN(c1cccc(Cl)c1)S(=O)(=O)C1CC2OC1C(c1ccc(NC(=O)CCCCC[Se]C#N)cc1)=C2c1ccc(O)cc1 (stereo not given) | 3.83

Test system: not listed separately
Assay: Cytotoxicity against human MCF-10A cells assessed as inhibition of cell proliferation incubated for 72 hrs by CCK8 assay
Assay type: toxicity, cell-based
Conditions: not given

Structure (SMILES) | IC50 at 72 h [µM]
N#C[Se]CCCCCC(=O)Nc1ccc(C2=C(c3ccc(O)cc3)C3CC(S(=O)(=O)N(CC(F)(F)F)c4ccccc4)C2O3)cc1 (stereo not given) | 57.6
COc1ccc(N(CC(F)(F)F)S(=O)(=O)C2CC3OC2C(c2ccc(NC(=O)CCCCC[Se]C#N)cc2)=C3c2ccc(O)cc2)cc1 (stereo not given) | 36.7
CCN(c1cccc(F)c1)S(=O)(=O)C1CC2OC1C(c1ccc(NC(=O)CCCCC[Se]C#N)cc1)=C2c1ccc(O)cc1 (stereo not given) | 11
CCN(c1ccc(OC)cc1)S(=O)(=O)C1CC2OC1C(c1ccc(NC(=O)CCC[Se]C#N)cc1)=C2c1ccc(O)cc1 (stereo not given) | > 100
CCN(c1cccc(Cl)c1)S(=O)(=O)C1CC2OC1C(c1ccc(NC(=O)CCCCC[Se]C#N)cc1)=C2c1ccc(O)cc1 (stereo not given) | 9.23

Test system: not listed separately
Assay: Selectivity index, ratio of IC50 for cytotoxicity against human MCF-10A cells to IC50 for antiproliferative activity against human MCF7 cells
Assay type: toxicity, cell-based
Conditions: MCF-10A cells and MCF7 cells, read-out: Ratio IC50

Structure (SMILES) | selectivity ratio
N#C[Se]CCCCCC(=O)Nc1ccc(C2=C(c3ccc(O)cc3)C3CC(S(=O)(=O)N(CC(F)(F)F)c4ccccc4)C2O3)cc1 (stereo not given) | 30.5
COc1ccc(N(CC(F)(F)F)S(=O)(=O)C2CC3OC2C(c2ccc(NC(=O)CCCCC[Se]C#N)cc2)=C3c2ccc(O)cc2)cc1 (stereo not given) | 147
CCN(c1cccc(F)c1)S(=O)(=O)C1CC2OC1C(c1ccc(NC(=O)CCCCC[Se]C#N)cc1)=C2c1ccc(O)cc1 (stereo not given) | 30.6
CCN(c1ccc(OC)cc1)S(=O)(=O)C1CC2OC1C(c1ccc(NC(=O)CCC[Se]C#N)cc1)=C2c1ccc(O)cc1 (stereo not given) | > 61.4
CCN(c1cccc(Cl)c1)S(=O)(=O)C1CC2OC1C(c1ccc(NC(=O)CCCCC[Se]C#N)cc1)=C2c1ccc(O)cc1 (stereo not given) | 33

Test system: not listed separately
Assay: Antiproliferative activity against human Tamoxifen-resistant LCC2 cells assessed as inhibition of cell proliferation incubated for 72 hrs by CCK8 assay
Assay type: functional, cell-based
Conditions: not given

Structure (SMILES) | IC50 [µM]
N#C[Se]CCCCCC(=O)Nc1ccc(C2=C(c3ccc(O)cc3)C3CC(S(=O)(=O)N(CC(F)(F)F)c4ccccc4)C2O3)cc1 (stereo not given) | 20.2
COc1ccc(N(CC(F)(F)F)S(=O)(=O)C2CC3OC2C(c2ccc(NC(=O)CCCCC[Se]C#N)cc2)=C3c2ccc(O)cc2)cc1 (stereo not given) | 3.73
CCN(c1cccc(F)c1)S(=O)(=O)C1CC2OC1C(c1ccc(NC(=O)CCCCC[Se]C#N)cc1)=C2c1ccc(O)cc1 (stereo not given) | 2.51
CCN(c1ccc(OC)cc1)S(=O)(=O)C1CC2OC1C(c1ccc(NC(=O)CCC[Se]C#N)cc1)=C2c1ccc(O)cc1 (stereo not given) | 17.4
CCN(c1cccc(Cl)c1)S(=O)(=O)C1CC2OC1C(c1ccc(NC(=O)CCCCC[Se]C#N)cc1)=C2c1ccc(O)cc1 (stereo not given) | 2.61

Test system: T47D
Assay: Antiproliferative activity against human T47D cells harboring ERalpha D538G mutant assessed as inhibition of cell proliferation incubated for 72 hrs by CCK8 assay
Assay type: functional, cell-based
Conditions: not given

Structure (SMILES) | IC50 [µM]
N#C[Se]CCCCCC(=O)Nc1ccc(C2=C(c3ccc(O)cc3)C3CC(S(=O)(=O)N(CC(F)(F)F)c4ccccc4)C2O3)cc1 (stereo not given) | 17.4
COc1ccc(N(CC(F)(F)F)S(=O)(=O)C2CC3OC2C(c2ccc(NC(=O)CCCCC[Se]C#N)cc2)=C3c2ccc(O)cc2)cc1 (stereo not given) | 3.96
CCN(c1cccc(F)c1)S(=O)(=O)C1CC2OC1C(c1ccc(NC(=O)CCCCC[Se]C#N)cc1)=C2c1ccc(O)cc1 (stereo not given) | 2.37
CCN(c1ccc(OC)cc1)S(=O)(=O)C1CC2OC1C(c1ccc(NC(=O)CCC[Se]C#N)cc1)=C2c1ccc(O)cc1 (stereo not given) | 8.97
CCN(c1cccc(Cl)c1)S(=O)(=O)C1CC2OC1C(c1ccc(NC(=O)CCCCC[Se]C#N)cc1)=C2c1ccc(O)cc1 (stereo not given) | 1.91

Test system: T47D
Assay: Antiproliferative activity against human T47D cells harboring ERalpha Y537S mutant assessed as inhibition of cell proliferation incubated for 72 hrs by CCK8 assay
Assay type: functional, cell-based
Conditions: not given

Structure (SMILES) | IC50 [µM]
N#C[Se]CCCCCC(=O)Nc1ccc(C2=C(c3ccc(O)cc3)C3CC(S(=O)(=O)N(CC(F)(F)F)c4ccccc4)C2O3)cc1 (stereo not given) | 18.9
COc1ccc(N(CC(F)(F)F)S(=O)(=O)C2CC3OC2C(c2ccc(NC(=O)CCCCC[Se]C#N)cc2)=C3c2ccc(O)cc2)cc1 (stereo not given) | 3.06
CCN(c1cccc(F)c1)S(=O)(=O)C1CC2OC1C(c1ccc(NC(=O)CCCCC[Se]C#N)cc1)=C2c1ccc(O)cc1 (stereo not given) | 2.39
CCN(c1ccc(OC)cc1)S(=O)(=O)C1CC2OC1C(c1ccc(NC(=O)CCC[Se]C#N)cc1)=C2c1ccc(O)cc1 (stereo not given) | 6.69
CCN(c1cccc(Cl)c1)S(=O)(=O)C1CC2OC1C(c1ccc(NC(=O)CCCCC[Se]C#N)cc1)=C2c1ccc(O)cc1 (stereo not given) | 3.03

Biological target: T1, Estrogen receptor (Homo sapiens)
Assay: Induction of ERalpha degradation in human MCF7 cells at 5 uM incubated for 24 hrs by Western blot analysis relative to SeCN-OBHSA derivatives
Assay type: cell-based
Conditions: not given

Structure (SMILES) | Activity
N#C[Se]CCCCCC(=O)Nc1ccc(C2=C(c3ccc(O)cc3)C3CC(S(=O)(=O)N(CC(F)(F)F)c4ccccc4)C2O3)cc1 (stereo not given) | Active
COc1ccc(N(CC(F)(F)F)S(=O)(=O)C2CC3OC2C(c2ccc(NC(=O)CCCCC[Se]C#N)cc2)=C3c2ccc(O)cc2)cc1 (stereo not given) | Active
CCN(c1cccc(F)c1)S(=O)(=O)C1CC2OC1C(c1ccc(NC(=O)CCCCC[Se]C#N)cc1)=C2c1ccc(O)cc1 (stereo not given) | Active
CCN(c1ccc(OC)cc1)S(=O)(=O)C1CC2OC1C(c1ccc(NC(=O)CCC[Se]C#N)cc1)=C2c1ccc(O)cc1 (stereo not given) | Active
CCN(c1cccc(Cl)c1)S(=O)(=O)C1CC2OC1C(c1ccc(NC(=O)CCCCC[Se]C#N)cc1)=C2c1ccc(O)cc1 (stereo not given) | Active
